For one series, the system named is Staphylococcus aureus. In words: Antibacterial activity against methicillin-resistant Staphylococcus aureus. Format: functional.
The nature of series [1]: Cytotoxicity against human HepG2 cells assessed as inhibition of cell growth. Format: toxicity, cell-based.
Series [2] is described as follows: Cytotoxicity against human MKN-28 cells assessed as inhibition of cell growth. Format: toxicity, cell-based.
The nature of series [3]: Cytotoxicity against human HKC-8 cells assessed as inhibition of cell growth. Format: toxicity, cell-based.

Each structure is given as a SMILES string. ≈ marks a conversion by molar mass, not a printed value.

As for `S=C=NCCn1ccc2ccccc21`, in the series on Staphylococcus aureus, 8 µg/mL (≈ 39.5 µM) was the least that counted as inhibitory (MIC). Moreover, the concentration for half-maximal inhibition (IC50) in series [1], in series [2] and in series [3] was 2 µg/mL (≈ 9.89 µM) each time.

Broadly, the MIC is the lowest concentration that inhibits growth of the organism. By IC50 is commonly meant the concentration needed to halve the response being measured.

For the origin of these results see ChEMBL document CHEMBL5230084, “Indole-based derivatives as potential antibacterial activity against methicillin-resistance Staphylococcus aureus (MRSA)” (Eur J Med Chem, 2020).
